Read-outs that look alike come from different tables or passages of the source.
How the values were obtained:
Experiment in all cases: biochemical
Type in all cases: biochemical
382 unique human kinases [1] = target: T1, 382 unique human kinases (Homo sapiens, UniProt P15735); conditions: PHKg2, compound at 10 uM, duplicate values; for remaining activity at 10 µM: read-out: % Enzyme Activity (relative to DMSO controls)
T1 construct: purchased Reaction Biology (HotSpot contract assay)
T1 sequence (P15735 1-406): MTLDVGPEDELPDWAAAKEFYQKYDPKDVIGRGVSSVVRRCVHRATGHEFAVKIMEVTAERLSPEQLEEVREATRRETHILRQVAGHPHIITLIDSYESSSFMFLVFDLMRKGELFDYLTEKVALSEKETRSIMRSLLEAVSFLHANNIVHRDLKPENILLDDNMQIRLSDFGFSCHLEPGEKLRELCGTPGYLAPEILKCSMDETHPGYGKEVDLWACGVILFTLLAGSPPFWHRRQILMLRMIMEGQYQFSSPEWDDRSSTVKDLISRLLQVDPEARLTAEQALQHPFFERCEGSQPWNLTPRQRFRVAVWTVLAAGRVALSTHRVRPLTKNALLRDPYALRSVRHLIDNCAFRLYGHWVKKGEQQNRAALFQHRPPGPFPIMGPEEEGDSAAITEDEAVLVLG

382 unique human kinases [2] = target: T2, 382 unique human kinases (Homo sapiens, UniProt Q56UN5); conditions: kinase YSK4/MAP3K19, compound 10 uM; for remaining activity at 10 µM: read-out: % Enzyme Activity (relative to DMSO controls)
T2 construct: purchased Reaction Biology (HotSpot contract assay)
T2 sequence (Q56UN5 1-1328): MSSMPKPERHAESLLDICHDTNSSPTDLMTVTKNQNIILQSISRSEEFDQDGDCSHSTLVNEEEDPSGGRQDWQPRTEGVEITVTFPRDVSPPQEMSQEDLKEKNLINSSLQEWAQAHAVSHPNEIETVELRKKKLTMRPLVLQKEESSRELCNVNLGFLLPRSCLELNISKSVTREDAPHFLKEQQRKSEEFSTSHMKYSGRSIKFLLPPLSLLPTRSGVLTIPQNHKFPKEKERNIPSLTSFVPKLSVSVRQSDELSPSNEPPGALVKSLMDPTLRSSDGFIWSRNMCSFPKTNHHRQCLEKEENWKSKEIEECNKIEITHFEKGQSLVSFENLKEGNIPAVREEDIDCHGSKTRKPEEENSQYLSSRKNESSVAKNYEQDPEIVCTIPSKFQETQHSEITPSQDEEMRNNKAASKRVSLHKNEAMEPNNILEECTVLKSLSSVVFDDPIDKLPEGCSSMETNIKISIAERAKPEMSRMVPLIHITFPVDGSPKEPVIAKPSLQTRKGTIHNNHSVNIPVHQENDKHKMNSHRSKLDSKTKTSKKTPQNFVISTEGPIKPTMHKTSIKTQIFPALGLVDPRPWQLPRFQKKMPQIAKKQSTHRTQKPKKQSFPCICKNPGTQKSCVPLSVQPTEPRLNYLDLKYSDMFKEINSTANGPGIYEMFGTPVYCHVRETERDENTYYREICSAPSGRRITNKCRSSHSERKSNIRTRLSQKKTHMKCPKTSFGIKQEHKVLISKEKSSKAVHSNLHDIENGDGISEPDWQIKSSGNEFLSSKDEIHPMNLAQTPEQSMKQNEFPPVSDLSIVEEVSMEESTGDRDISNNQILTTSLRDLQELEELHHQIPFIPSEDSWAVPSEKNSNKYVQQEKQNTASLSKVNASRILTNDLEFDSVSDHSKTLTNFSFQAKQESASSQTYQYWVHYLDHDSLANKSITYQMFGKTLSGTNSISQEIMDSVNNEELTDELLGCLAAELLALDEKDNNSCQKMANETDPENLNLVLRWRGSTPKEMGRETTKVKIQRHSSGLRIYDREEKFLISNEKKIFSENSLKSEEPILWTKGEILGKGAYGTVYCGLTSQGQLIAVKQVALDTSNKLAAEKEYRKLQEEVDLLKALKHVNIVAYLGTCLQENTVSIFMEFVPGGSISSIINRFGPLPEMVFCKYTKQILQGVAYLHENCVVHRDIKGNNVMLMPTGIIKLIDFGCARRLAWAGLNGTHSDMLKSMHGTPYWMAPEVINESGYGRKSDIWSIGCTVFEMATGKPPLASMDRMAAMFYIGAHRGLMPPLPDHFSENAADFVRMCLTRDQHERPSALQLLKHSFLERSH

382 unique human kinases [3] = target: T3, 382 unique human kinases (Homo sapiens, UniProt P07949, E762Q); conditions: compound 10 uM; for remaining activity at 10 µM: read-out: % Enzyme Activity (relative to DMSO controls)
T3 construct: purchased Reaction Biology (HotSpot contract assay)
T3 sequence (P07949 29-1114 E762Q): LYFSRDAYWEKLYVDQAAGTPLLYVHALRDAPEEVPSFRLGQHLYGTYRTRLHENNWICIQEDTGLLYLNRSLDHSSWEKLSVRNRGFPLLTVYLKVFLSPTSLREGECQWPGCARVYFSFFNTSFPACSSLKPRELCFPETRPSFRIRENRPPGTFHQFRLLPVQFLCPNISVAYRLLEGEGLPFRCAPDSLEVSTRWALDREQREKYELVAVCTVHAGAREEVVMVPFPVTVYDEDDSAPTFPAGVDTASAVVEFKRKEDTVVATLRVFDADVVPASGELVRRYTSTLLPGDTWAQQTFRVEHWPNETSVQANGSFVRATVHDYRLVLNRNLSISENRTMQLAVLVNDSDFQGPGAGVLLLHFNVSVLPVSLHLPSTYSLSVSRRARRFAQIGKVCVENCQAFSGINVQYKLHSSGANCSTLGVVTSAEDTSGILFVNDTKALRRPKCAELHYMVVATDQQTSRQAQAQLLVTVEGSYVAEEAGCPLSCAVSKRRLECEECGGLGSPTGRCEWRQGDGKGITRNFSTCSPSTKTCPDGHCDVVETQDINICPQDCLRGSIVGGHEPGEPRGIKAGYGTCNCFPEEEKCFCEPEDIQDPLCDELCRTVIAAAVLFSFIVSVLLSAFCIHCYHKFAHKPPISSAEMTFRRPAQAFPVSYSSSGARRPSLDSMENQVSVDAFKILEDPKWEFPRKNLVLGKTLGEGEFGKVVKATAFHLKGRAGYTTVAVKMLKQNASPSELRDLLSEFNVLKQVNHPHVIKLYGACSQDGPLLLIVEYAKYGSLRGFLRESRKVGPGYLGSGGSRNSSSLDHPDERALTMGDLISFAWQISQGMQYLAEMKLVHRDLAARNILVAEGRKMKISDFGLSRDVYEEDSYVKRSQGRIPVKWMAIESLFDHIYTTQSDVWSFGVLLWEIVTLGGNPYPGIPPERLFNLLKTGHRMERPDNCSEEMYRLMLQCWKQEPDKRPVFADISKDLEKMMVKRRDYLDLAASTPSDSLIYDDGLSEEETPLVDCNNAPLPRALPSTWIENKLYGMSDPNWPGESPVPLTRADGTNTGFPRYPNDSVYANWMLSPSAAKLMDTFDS

382 unique human kinases [4] = target: T4, 382 unique human kinases (Homo sapiens, UniProt P21802, K659N); conditions: FGFR2 (K659N), 10 uM; for remaining activity at 10 µM: read-out: % Enzyme Activity (relative to DMSO controls)
T4 construct: purchased Reaction Biology (HotSpot contract assay)
T4 sequence (P21802 22-821 K659N): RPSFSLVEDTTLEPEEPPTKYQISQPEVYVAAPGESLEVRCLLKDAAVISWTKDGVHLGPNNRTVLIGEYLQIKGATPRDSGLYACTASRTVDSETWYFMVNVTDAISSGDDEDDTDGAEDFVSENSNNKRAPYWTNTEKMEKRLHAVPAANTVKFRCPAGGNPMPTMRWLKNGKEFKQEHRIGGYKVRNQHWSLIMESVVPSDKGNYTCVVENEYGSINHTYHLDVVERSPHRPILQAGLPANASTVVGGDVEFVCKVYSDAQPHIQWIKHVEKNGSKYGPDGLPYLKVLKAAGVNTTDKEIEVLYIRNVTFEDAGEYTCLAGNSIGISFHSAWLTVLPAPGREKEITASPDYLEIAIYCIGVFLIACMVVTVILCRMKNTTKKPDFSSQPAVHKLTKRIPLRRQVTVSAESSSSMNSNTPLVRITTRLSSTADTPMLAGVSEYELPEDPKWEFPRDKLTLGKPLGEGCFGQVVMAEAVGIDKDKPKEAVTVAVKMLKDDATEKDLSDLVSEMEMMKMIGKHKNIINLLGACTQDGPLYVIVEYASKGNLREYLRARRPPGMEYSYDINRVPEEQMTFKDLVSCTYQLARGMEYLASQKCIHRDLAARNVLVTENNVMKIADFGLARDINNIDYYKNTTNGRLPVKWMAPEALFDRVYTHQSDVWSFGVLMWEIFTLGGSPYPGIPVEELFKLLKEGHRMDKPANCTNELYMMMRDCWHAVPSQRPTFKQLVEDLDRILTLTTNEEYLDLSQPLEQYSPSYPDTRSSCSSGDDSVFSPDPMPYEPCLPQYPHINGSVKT

382 unique human kinases [5] = target: T5, 382 unique human kinases (Homo sapiens, UniProt P08581, Y1230H); conditions: c-MET (Y1230H), 10 uM; for remaining activity at 10 µM: read-out: % Enzyme Activity (relative to DMSO controls)
T5 construct: purchased Reaction Biology (HotSpot contract assay)

382 unique human kinases [6] = target: T6, 382 unique human kinases (Homo sapiens, UniProt Q96BR1); conditions: SGK3/SGKL, 10 uM; for remaining activity at 10 µM: read-out: % Enzyme Activity (relative to DMSO controls)
T6 construct: purchased Reaction Biology (HotSpot contract assay)
T6 sequence (Q96BR1 1-496): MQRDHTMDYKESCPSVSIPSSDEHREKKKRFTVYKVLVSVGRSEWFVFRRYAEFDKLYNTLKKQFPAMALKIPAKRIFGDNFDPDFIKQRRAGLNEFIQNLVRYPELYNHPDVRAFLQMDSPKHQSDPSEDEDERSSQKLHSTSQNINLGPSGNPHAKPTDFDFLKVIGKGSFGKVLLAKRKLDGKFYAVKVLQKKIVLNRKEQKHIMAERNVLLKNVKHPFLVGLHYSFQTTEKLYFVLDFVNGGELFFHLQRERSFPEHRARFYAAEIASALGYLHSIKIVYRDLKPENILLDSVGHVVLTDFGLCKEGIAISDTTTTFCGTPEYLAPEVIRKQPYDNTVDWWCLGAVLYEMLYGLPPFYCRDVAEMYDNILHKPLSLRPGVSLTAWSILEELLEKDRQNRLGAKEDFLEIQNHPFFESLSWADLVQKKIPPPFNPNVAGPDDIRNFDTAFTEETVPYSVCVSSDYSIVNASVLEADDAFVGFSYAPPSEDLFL

| Structure (SMILES) | remaining activity at 10 µM (382 unique human kinases [1]) | remaining activity at 10 µM (382 unique human kinases [2]) | remaining activity at 10 µM (382 unique human kinases [3]; […]) | remaining activity at 10 µM (382 unique human kinases [3]; kinase RET (E762Q)) | remaining activity at 10 µM (382 unique human kinases [4]) | remaining activity at 10 µM (382 unique human kinases [5]) | % Enzyme Activity (relative to DMSO controls) (382 unique human kinases [6]) | remaining activity at 10 µM (382 unique human kinases [6]) | % Enzyme Activity (relative to DMSO controls) (382 unique human kinases [1]) | % Enzyme Activity (relative to DMSO controls) (382 unique human kinases [2]) | % Enzyme Activity (relative to DMSO controls) (382 unique human kinases [3]; kinase RET (E762Q)) | % Enzyme Activity (relative to DMSO controls) (382 unique human kinases [4]) | % Enzyme Activity (relative to DMSO controls) (382 unique human kinases [5]) |
| --- | --- | --- | --- | --- | --- | --- | --- | --- | --- | --- | --- | --- | --- |
| CC(C)c1cc(-c2n[nH]c(=O)n2-c2ccc3c(ccn3C)c2)c(O)cc1O [Ganetespib (STA9090)] | 105% | 85.8% | 94.2% | 93.8% | 70.6% | 108% |  |  |  |  |  |  |  |
| CCNC(=O)c1noc(-c2cc(C(C)C)c(O)cc2O)c1-c1ccc(CN2CCOCC2)cc1 [Luminespib] |  |  |  |  |  |  | 105.88% | 106% |  |  |  |  |  |
| CCNC(=O)c1noc(-c2cc(C(C)C)c(O)cc2O)c1-c1ccc(CN2CCOCC2)cc1 [Luminespib (AUY-922)] | 107% | 88.7% |  | 96.6% | 102% | 79.7% |  |  | 106.26% | 85.23% | 89.64% | 101.12% | 78.17% |
| CC(C)c1cc(-c2n[nH]c(=O)n2-c2ccc3c(ccn3C)c2)c(O)cc1O [Ganetespib] |  |  |  |  |  |  |  | 101% |  |  |  |  |  |

Reference: paper PMC8550792, “Evolution of kinase polypharmacology across HSP90 drug discovery” (Cell Chemical Biology, 2021)
